Laboratory results from patent publication US20120115774A1, “ANTIMICROBIAL CATIONIC LIPO-BETA-PEPTIDES” (UNIVERSITY OF MANITOBA, priority 2009, published 2012).
Values after ≈ are worked out from the molar mass of the structure shown. Like-named read-outs stand apart in the source and are kept apart here.

Tests used:
S. aureus ATCC 29213 = assay type: cell-based, Staphylococcus aureus
Protocol: (§1) Antibacterial activity against Gram positive and Gram negative microorganisms was investigated via broth macrodilution tests using CLSI methodology (Zhanel et al., 2008). Stock solutions of lipopeptide antibiotics in water were brought to a standard 512 μg/mL, with only βC12-KLLK and βC16-KAAK requiring a minute amount of DMSO. Organisms were subcultured and isolated on blood agar, suspended in 3 mL of Mueller-Hinton broth at the turbidity of a […], and diluted to approximately 10^5 CFU/mL before introduction into tubes containing serially diluted lipopeptide antibiotic in Mueller-Hinton broth. Activity testing against S. pneumoniae used broth supplemented with laked horse blood to give 5% horse blood in experimental tubes. The turbidity resulting from lipopeptide solution in broth required the creation of control tubes lacking microbes serving as turbidity controls. All tubes were incubated overnight for 16-20 h at 37° C. Colony counts of diluted 10^5 CFU/mL solution of microorganism confirmed the validity of the trial with colony counts expected in the 10^5 CFU/mL range and also incubated overnight in a CO2 incubator at 37° C. and 5% CO2.

[1] = test system: S. epidermidis ATCC 14990; assay type: cell-based, Staphylococcus epidermidis
Protocol: as §1

[2] = test system: E. coli (Amikacin MIC 32 μg/mL) CAN-ICU 63074; assay type: cell-based
Protocol: as §1

[3] = test system: E. coli (Gentamicin resistant-Gent R) CAN-ICU 61714; assay type: cell-based
Protocol: as §1

E. coli ATCC 25922 = assay type: cell-based
Protocol: as §1

[4] = test system: methicillin-resistant Staphylococcus aureus (MRSA) ATCC 33592; assay type: cell-based
Protocol: as §1

[5] = test system: methicillin-resistant Staphylococcus epidermidis (MRSE) CAN-ICU 61589; assay type: cell-based
Protocol: as §1

E. faecalis ATCC 29212 = assay type: cell-based, Enterococcus faecalis
Protocol: as §1

E. faecium ATCC 27270 = assay type: cell-based, Enterococcus faecium
Protocol: as §1

S. pneumoniae ATCC 49619 = assay type: cell-based, Streptococcus pneumoniae
Protocol: as §1

[6] = test system: P. aeruginosa (Gent-R) CAN-ICU 62308; assay type: cell-based, Pseudomonas aeruginosa
Protocol: as §1

P. aeruginosa ATCC 27853 = assay type: cell-based, Pseudomonas aeruginosa
Protocol: as §1

[7] = test system: S. maltophilia CAN-ICU 62584; assay type: cell-based, Stenotrophomonas maltophilia
Protocol: as §1

[8] = test system: A. baumannii CAN-ICU 63169; assay type: cell-based, Acinetobacter baumannii
Protocol: as §1

[9] = test system: E. coli (Amikacin MIC 32 μg/mL) CAN-ICU 63074; conditions: strain description, clinical isolate of CAN-ICU study; cited from earlier work
[10] = test system: methicillin-resistant Staphylococcus epidermidis (MRSE) CAN-ICU 61589; conditions: strain description, clinical isolate of CAN-ICU study; cited from earlier work
K. pneumoniae ATCC 13883 = assay type: cell-based, Klebsiella pneumoniae; conditions: Mueller-Hinton broth, 16-20 h at 37° C.
Protocol: as §1

[11] = Amikacin MIC 32 μg/mL) CAN-ICU 63074
[12] = Gentamicin resistant-Gent R) CAN-ICU 61714
[13] = methicillin-resistant CAN-ICU 61589
[14] = Mueller-Hinton broth, 16-20 h at 37° C.

Compound | MIC, S. aureus ATCC29213 (S. aureus ATCC 29213; ATCC 29213) [µg/mL] | MIC, S. epidermidis ATCC14990 ([1]; ATCC 14990) [µg/mL] | MIC, E. coli CAN-ICU 63074 [2, 11] [µg/mL] | MIC, E. coli CAN-ICU 61714 [3, 12] [µg/mL] | MIC, E. coli ATCC25922 (E. coli ATCC 25922; ATCC 25922) [µg/mL] | MIC, MRSA ATCC33592 ([4]; ATCC 33592) [µg/mL] | MIC, MRSE CAN-ICU 61589 [5, 13] [µg/mL] | MIC, E. faecalis ATCC29212 (E. faecalis ATCC 29212) [µg/mL] | MIC, E. facium ATCC27270 (E. faecium ATCC 27270) [µg/mL] | MIC, S. pneumoniae ATCC49619 (S. pneumoniae ATCC 49619; ATCC 49619) [µg/mL] | MIC, P. aeruginosa CAN-ICU 62308 ([6]; Gent-R) CAN-ICU 62308) [µg/mL] | MIC, P. aeruginosa ATCC27853 (P. aeruginosa ATCC 27853; ATCC 27853) [µg/mL] | MIC, S. maltophilia CAN-ICU 62584 ([7]; CAN-ICU 62584) [µg/mL] | MIC, A. baumannii CAN-ICU 63169 ([8]; CAN-ICU 63169) [µg/mL] | further results
CCCCCCCCCCCC(=O)N[C@@H](CCCCN)CC(=O)N[C@H](CC(=O)N[C@H](CC(=O)N[C@@H](CCCCN)CC(N)=O)CC(C)C)CC(C)C [(β)C12-KLLK] | 32 (≈ 43.4 µM) | 16 (≈ 21.7 µM) | 64 (≈ 86.7 µM) | 64 (≈ 86.7 µM) | 64 (≈ 86.7 µM) | 32 (≈ 43.4 µM) | 32 (≈ 43.4 µM) | 64 (≈ 86.7 µM) | 32 (≈ 43.4 µM) | 128 (≈ 173 µM) | 128 (≈ 173 µM) | 128 (≈ 173 µM) | 256 (≈ 347 µM) | >128 | –
CCCCCCCCCCCCCCCC(=O)N[C@@H](CCCCN)CC(=O)N[C@@H](C)CC(=O)N[C@@H](C)CC(=O)N[C@@H](CCCCN)CC(N)=O [(β)C16-KAAK] | 64 (≈ 90.1 µM) | 8 (≈ 11.3 µM) | 64 (≈ 90.1 µM) | 64 (≈ 90.1 µM) | 64 (≈ 90.1 µM) | 32 (≈ 45.1 µM) | 16 (≈ 22.5 µM) | 32 (≈ 45.1 µM) | 32 (≈ 45.1 µM) | >64 | 128 (≈ 180 µM) | 256 (≈ 361 µM) | >128 | 256 (≈ 361 µM) | –
CCCCCCCCCCCCCCCC(=O)N[C@@H](CCCCN)CC(=O)NCCC(=O)NCCC(=O)N[C@@H](CCCCN)CC(N)=O [(β)C16-KGGK] | 16 (≈ 23.5 µM) | 8 (≈ 11.7 µM) | 32 (≈ 46.9 µM) | 32 (≈ 46.9 µM) | 32 (≈ 46.9 µM) | 32 (≈ 46.9 µM) | 16 (≈ 23.5 µM) | 32 (≈ 46.9 µM) | 32 (≈ 46.9 µM) | 128 (≈ 188 µM) | >64 | 64 (≈ 93.8 µM) | 256 (≈ 375 µM) | 128 (≈ 188 µM) | –
CCCCCCCCCCCCCCCC(=O)N[C@@H](CCCCN)CC(=O)N[C@@H](CCCCN)CC(=O)N[C@@H](CCCCN)CC(=O)N[C@@H](CCCCN)CC(N)=O [(β)C16-KKKK] | 16 (≈ 19.4 µM) | 4 (≈ 4.85 µM) | 32 (≈ 38.8 µM) | 32 (≈ 38.8 µM) | 16 (≈ 19.4 µM) | 16 (≈ 19.4 µM) | 4 (≈ 4.85 µM) | 32 (≈ 38.8 µM) | 16 (≈ 19.4 µM) | 128 (≈ 155 µM) | 128 (≈ 155 µM) | 64 (≈ 77.6 µM) | 256 (≈ 311 µM) | 256 (≈ 311 µM) | –
NCC[C@H](O)C(=O)N[C@@H]1C[C@H](N)[C@@H](O[C@H]2O[C@H](CN)[C@@H](O)[C@H](O)[C@H]2O)[C@H](O)[C@H]1O[C@H]1O[C@H](CO)[C@@H](O)[C@H](N)[C@H]1O [Amikacin] | – | – | – | – | – | – | – | – | – | – | – | – | – | – | Amikacin MIC of E. coli CAN-ICU 63074 [9]: 32 µg/mL
Cc1nnc(SCC2=C(C(=O)O)N3C(=O)[C@@H](NC(=O)Cn4cnnn4)[C@H]3SC2)s1 [Cefazolin] | – | – | – | – | – | – | – | – | – | – | – | – | – | – | Cefazolin-CZ MIC of MRSE CAN-ICU 61589 [10]: > 32 µg/mL
Gentamicin [reference compound] | – | – | – | – | – | – | – | – | – | – | – | – | – | – | MIC, S. aureus ATCC29213 (S. aureus ATCC 29213; [14]): 1 µg/mL; MIC, S. epidermidis ATCC14990 [1, 14]: 0.25 µg/mL; MIC, E. coli CAN-ICU 63074 [2, 14]: 8 µg/mL; MIC, E. coli CAN-ICU 61714 ([3]; Gentamicin resistant strain, Mueller-Hinton broth, 16-20 h at 37° C.): 128 µg/mL; MIC, E. coli ATCC25922 (E. coli ATCC 25922; [14]): 1 µg/mL; MIC, MRSA ATCC33592 [4, 14]: 2 µg/mL; MIC, MRSE CAN-ICU 61589 [5, 14]: 32 µg/mL; MIC, S. pneumoniae ATCC49619 (S. pneumoniae ATCC 49619; broth supplemented with laked horse blood (5% horse blood), 16-20 h at 37° C.): 4 µg/mL; MIC, P. aeruginosa CAN-ICU 62308 ([6]; Gent-R strain, Mueller-Hinton broth, 16-20 h at 37° C.): 128 µg/mL; MIC, P. aeruginosa ATCC27853 (P. aeruginosa ATCC 27853; [14]): 8 µg/mL; MIC, S. maltophilia CAN-ICU 62584 [7, 14]: >512 µg/mL; MIC, A. baumannii CAN-ICU 63169 [8, 14]: 128 µg/mL; MIC, S. pneumoniae ATCC13883 (K. pneumoniae ATCC 13883): 0.25 µg/mL
